Columns and labels:
Format in all cases: biochemical
[1] = target: T1, Lck enzyme (Homo sapiens, UniProt P06239); assay: Lck enzyme activity, IMAP fluorescence polarization assay; settings: 60 min pre-incubation, 6 μM ATP (Km)
T1 construct: purchased Millipore 14-442
Procedure: Lck enzyme activity is measured using the IMAP (immobilized metal ion affinity-based fluorescence polarization) assay as outlined below.
Lck enzyme (Millipore catalog#14-442), is diluted to 0.4 U/mL in KR buffer (10 mM Tris-HCl, 10 mM MgCl2, 0.01% Tween-20, 0.05% NaN3, 1 mM DTT, 2 mM MnCl2, pH 7.2). Serial dilution log 10 from 2 mM to 63.2 nM of test compounds are made in 100% DMSO. The dilutions in DMSO are then diluted 50-fold in KR-buffer of which 5 μl is used in the assay, leading to a final compound concentration range in the assay from 10 μM to 0.316 nM. 5 μL/well of test compound in KR buffer (final DMSO concentration in the assay is 1%) is mixed with 5 μl/well of 0.4 U/mL Lck enzyme (final concentration in the assay is 0.1 U/mL). Test compounds and Lck enzyme are pre-incubated 60 minutes at room temperature, before adding 5 μL/well of 400 nM Fluorescin labeled substrate peptide (p34cdc2 substrate peptide, e.g. #R7157/#R7172, Molecular Devices) in KR-buffer. Final peptide substrate concentration in assay is 100 nM. The kinase assay is started by adding 5 μL/well of 24 μM ATP in KR-buffer (final ATP concentration is 6 μM ATP, Km ATP in Lck IMAP assay). Following incubation for 2 h at room temperature the enzyme reaction is stopped by adding 40 μL/well IMAP Progressive Binding Solution (according to suppliers (Molecular Devices) protocol using 75% 1× buffer A and 25% 1× buffer B with 1:600 Progressive Binding Solution). After 60 min incubation at room temperature in the dark the FP signal is read. Fluorescence at 535 nm is measured using parallel and perpendicular filters to determine differences in rotation due to binding of the phosphorylated substrate peptide to the beads. Values are calculated as percentage of the difference in readout (ΔmPi) of the controls with and without ATP. EC50 values are determined by curve fitting of the experimental results using Activity Base.

[2] = target: T2, FynT enzyme (Homo sapiens, UniProt P06241); assay: FynT enzyme activity, IMAP fluorescence polarization assay; settings: 60 min pre-incubation, 0.2 μM ATP (Km)
T2 construct: purchased Biomol SE-287
Procedure: FynT enzyme activity is measured using the IMAP (immobilized metal ion affinity-based fluorescence polarization) assay as outlined below.
FynT enzyme (Biomol catalog# SE-287), is diluted to 0.5 μg/mL in KR buffer (10 mM Tris-HCl, 10 mM MgCl2, 0.01% Tween-20, 0.05% NaN3, 1 mM DTT, 2 mM MnCl2, pH 7.2). Serial dilution log 10 from 2 mM to 63.2 nM of test compounds are made in 100% DMSO. The dilutions in DMSO are then diluted 50-fold in KR-buffer of which 5 μl is used in the assay, leading to a final compound concentration range in the assay from 10 μM to 0.316 nM. 5 μL/well of test compound in KR buffer (final DMSO concentration in the assay is 1%) is mixed with 5 μl/well of 0.5 μg/mL FynT enzyme (final concentration in the assay is 125 ng/mL). Test compounds and FynT enzyme are pre-incubated 60 minutes at room temperature, before adding 5 μL/well of 400 nM Fluorescin labeled substrate peptide (p34cdc2 substrate peptide, e.g. #R7157/#R7172, Molecular Devices) in KR-buffer. Final peptide substrate concentration in assay is 100 nM. The kinase assay is started by adding 5 μL/well of 0.8 μM ATP in KR-buffer (final ATP concentration is 0.2 μM ATP, Km ATP in FynT IMAP assay). Following incubation for 2 h at room temperature the enzyme reaction is stopped by adding 40 μL/well IMAP Progressive Binding Solution (according to suppliers (Molecular Devices) protocol using 75% 1× buffer A and 25% 1× buffer B with 1:600 Progressive Binding Solution). After 60 min incubation at room temperature in the dark the FP signal is read. Fluorescence at 535 nm is measured using parallel and perpendicular filters to determine differences in rotation due to binding of the phosphorylated substrate peptide to the beads. Values are calculated as percentage of the difference in readout (ΔmPi) of the controls with and without ATP. EC50 values are determined by curve fitting of the experimental results using Activity Base.

[3] = target: T3, Src enzyme (Homo sapiens, UniProt P12931); assay: Src enzyme activity, IMAP fluorescence polarization assay; settings: 60 min pre-incubation, 4 μM ATP (Km)
T3 construct: purchased Millipore 14-326
Procedure: Src enzyme activity is measured using the IMAP (immobilized metal ion affinity-based fluorescence polarization) assay as outlined below.
Src enzyme (Millipore catalog#14-326), is diluted to 0.8 U/mL in KR buffer (10 mM Tris-HCl, 10 mM MgCl2, 0.01% Tween-20, 0.05% NaN3, 1 mM DTT, 2 mM MnCl2, pH 7.2).
Serial dilution log 10 from 2 mM to 63.2 nM of test compounds are made in 100% DMSO. The dilutions in DMSO are then diluted 50-fold in KR-buffer of which 5 μl is used in the assay, leading to a final compound concentration range in the assay from 10 μM to 0.316 nM. 5 μL/well of test compound in KR buffer (final DMSO concentration in the assay is 1%) is mixed with 5 μl/well of 0.8 U/mL Src enzyme (final concentration in the assay is 0.2 U/mL). Test compounds and Src enzyme are pre-incubated 60 minutes at room temperature, before adding 5 μL/well of 400 nM Fluorescin labeled substrate peptide (p34cdc2 substrate peptide, e.g. #R7157/#R7172, Molecular Devices) in KR-buffer. Final peptide substrate concentration in assay is 100 nM. The kinase assay is started by adding 5 μL/well of 16 μM ATP in KR-buffer (final ATP concentration is 4 μM ATP, Km ATP in Src IMAP assay). Following incubation for 2 h at room temperature the enzyme reaction is stopped by adding 40 μL/well IMAP Progressive Binding Solution (according to suppliers (Molecular Devices) protocol using 75% 1× buffer A and 25% 1× buffer B with 1:600 Progressive Binding Solution). After 60 min incubation at room temperature in the dark the FP signal is read. Fluorescence at 535 nm is measured using parallel and perpendicular filters to determine differences in rotation due to binding of the phosphorylated substrate peptide to the beads. Values are calculated as percentage of the difference in readout (ΔmPi) of the controls with and without ATP. EC50 values are determined by curve fitting of the experimental results using Activity Base.

T1 sequence (P06239 whole entry): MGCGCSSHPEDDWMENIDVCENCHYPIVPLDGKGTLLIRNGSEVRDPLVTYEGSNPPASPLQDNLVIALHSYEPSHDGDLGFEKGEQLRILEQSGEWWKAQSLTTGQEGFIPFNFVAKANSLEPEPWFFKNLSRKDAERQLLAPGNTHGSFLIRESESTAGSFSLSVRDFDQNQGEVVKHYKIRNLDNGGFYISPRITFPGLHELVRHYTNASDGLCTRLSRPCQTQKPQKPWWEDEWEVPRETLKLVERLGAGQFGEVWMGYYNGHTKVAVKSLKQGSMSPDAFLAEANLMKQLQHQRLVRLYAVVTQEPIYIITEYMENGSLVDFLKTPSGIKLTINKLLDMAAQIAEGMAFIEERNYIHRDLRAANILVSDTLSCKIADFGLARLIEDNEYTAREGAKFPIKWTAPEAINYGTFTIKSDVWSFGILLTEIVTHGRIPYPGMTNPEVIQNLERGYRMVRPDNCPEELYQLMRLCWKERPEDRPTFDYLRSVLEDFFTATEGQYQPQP
T3 sequence (P12931 whole entry): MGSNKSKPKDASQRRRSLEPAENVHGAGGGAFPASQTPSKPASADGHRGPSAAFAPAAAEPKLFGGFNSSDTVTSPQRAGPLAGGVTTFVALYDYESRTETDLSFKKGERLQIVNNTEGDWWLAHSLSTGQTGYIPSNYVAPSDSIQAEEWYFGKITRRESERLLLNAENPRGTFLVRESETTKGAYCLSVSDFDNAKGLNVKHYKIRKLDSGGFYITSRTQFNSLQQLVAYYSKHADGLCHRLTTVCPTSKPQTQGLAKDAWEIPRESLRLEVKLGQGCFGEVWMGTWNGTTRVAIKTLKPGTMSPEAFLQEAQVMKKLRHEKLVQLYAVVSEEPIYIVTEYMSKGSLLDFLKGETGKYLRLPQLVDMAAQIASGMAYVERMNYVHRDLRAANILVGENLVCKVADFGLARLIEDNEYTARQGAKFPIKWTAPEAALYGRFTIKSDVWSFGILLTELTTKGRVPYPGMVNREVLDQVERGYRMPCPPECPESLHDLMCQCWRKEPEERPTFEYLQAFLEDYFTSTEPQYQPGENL
T2 sequence (P06241 1-534 isoform P06241-2): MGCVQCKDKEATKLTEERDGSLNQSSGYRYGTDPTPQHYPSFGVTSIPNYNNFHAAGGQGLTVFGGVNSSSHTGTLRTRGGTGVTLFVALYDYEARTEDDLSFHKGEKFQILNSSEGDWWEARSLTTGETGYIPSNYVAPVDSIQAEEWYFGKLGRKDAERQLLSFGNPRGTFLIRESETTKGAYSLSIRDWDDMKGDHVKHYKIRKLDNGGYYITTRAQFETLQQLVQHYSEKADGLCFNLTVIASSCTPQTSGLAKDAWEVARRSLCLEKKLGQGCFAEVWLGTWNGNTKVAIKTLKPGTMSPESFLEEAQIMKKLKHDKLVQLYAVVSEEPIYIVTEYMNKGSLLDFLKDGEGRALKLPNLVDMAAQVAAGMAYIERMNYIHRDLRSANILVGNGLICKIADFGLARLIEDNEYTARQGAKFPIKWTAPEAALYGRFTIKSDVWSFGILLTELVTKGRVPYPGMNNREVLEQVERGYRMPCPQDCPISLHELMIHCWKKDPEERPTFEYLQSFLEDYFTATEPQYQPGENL

| EC50 [1] [nM] | EC50 [2] [nM] | EC50 [3] [nM] | Structure (SMILES) |
| --- | --- | --- | --- |
| ≥ 1000 | ≥ 1000 | ≥ 1000 | C=CC(=O)N1CCCC[C@H]1c1nc(-c2ccc(C(=O)Nc3cc(CCC)ccn3)cc2)c2c(C)nccn12 [Example 2, (S)-4-(3-(1-Acryloylpiperidin-2-yl)-8-methylimidazo[1,5-a]pyrazin-1-yl)-N-(4-propylpyridin-2-yl)benzamide] |
| ≥ 1000 | ≥ 1000 | ≥ 1000 | CCCc1ccnc(NC(=O)c2ccc(-c3nc([C@@H]4CCCCN4C(=O)/C=C/CN(C)C)n4ccnc(C)c34)cc2)c1 [Example 3, (S,E)-4-(3-(1-(4-(Dimethylamino)but-2-enoyl)piperidin-2-yl)-8-methylimidazo[1,5-a]pyrazin-1-yl)-N-(4-propylpyridin-2-yl)benzamide] |
| ≥ 1000 | ≥ 1000 | ≥ 1000 | C=CS(=O)(=O)N1CCCC[C@H]1c1nc(-c2ccc(C(=O)Nc3cc(CCC)ccn3)cc2)c2c(C)nccn12 [Example 4, (S)-4-(8-Methyl-3-(1-(vinylsulfonyl)piperidin-2-yl)imidazo[1,5-a]pyrazin-1-yl)-N-(4-propylpyridin-2-yl)benzamide] |
| ≥ 1000 | ≥ 1000 | ≥ 1000 | COC/C=C/C(=O)N[C@@H](C)c1nc(-c2ccc(C(=O)Nc3cc(C(F)(F)F)ccn3)cc2)c2c(C)nccn12 [Example 6, (S,E)-4-(3-(1-(4-Methoxybut-2-enamido)ethyl)-8-methylimidazo[1,5-a]pyrazin-1-yl)-N-(4-(trifluoromethyl)pyridin-2-yl)benzamide] |
| ≥ 1000 | ≥ 1000 | ≥ 1000 | CC#CC(=O)N[C@@H](C)c1nc(-c2ccc(C(=O)Nc3cc(C(F)(F)F)ccn3)cc2)c2c(C)nccn12 [Example 7, (S)-4-(3-(1-But-2-ynamidoethyl)-8-methylimidazo[1,5-a]pyrazin-1-yl)-N-(4-(trifluoromethyl)pyridin-2-yl)benzamide] |
| ≥ 1000 | ≥ 1000 | ≥ 1000 | C=CC(=O)N[C@@H](C)c1nc(-c2ccc(C(=O)Nc3cc(C(F)(F)F)ccn3)cc2)c2c(C)nccn12 [Example 8, (S)-4-(3-(1-Acrylamidoethyl)-8-methylimidazo[1,5-a]pyrazin-1-yl)-N-(4-(trifluoromethyl)pyridin-2-yl)benzamide] |
| ≥ 1000 | ≥ 1000 | ≥ 1000 | C=CC(=O)N1CCC[C@H]1c1nc(-c2ccc(C(=O)Nc3cc(CCC)ccn3)cc2)c2c(C)nccn12 [Example 9, (S)-4-(3-(1-Acryloylpyrrolidin-2-yl)-8-methylimidazo[1,5-a]pyrazin-1-yl)-N-(4-propylpyridin-2-yl)benzamide] |
| ≥ 1000 | ≥ 1000 | ≥ 1000 | C=CC(=O)N1CCC[C@H]1c1nc(-c2ccc(C(=O)Nc3cc(C(F)(F)F)ccn3)cc2)c2c(C)nccn12 [Example 10, (S)-4-(3-(1-Acryloylpyrrolidin-2-yl)-8-methylimidazo[1,5-a]pyrazin-1-yl)-N-(4-(trifluoromethyl)pyridin-2-yl)benzamide] |
| ≥ 1000 | ≥ 1000 | ≥ 1000 | C=CC(=O)N1CCC[C@H]1c1nc(-c2ccc(C(=O)Nc3cc(C#N)ccn3)cc2)c2c(C)nccn12 [Example 13, (S)-4-(3-(1-Acryloylpyrrolidin-2-yl)-8-methylimidazo[1,5-a]pyrazin-1-yl)-N-(4-cyanopyridin-2-yl)benzamide] |
| ≥ 1000 | ≥ 1000 | ≥ 1000 | CC#CC(=O)N1CCC[C@H]1c1nc(-c2ccc(C(=O)Nc3cc(C)ccn3)cc2)c2c(C)nccn12 [Example 15, (S)-4-(3-(1-but-2-ynoylpyrrolidin-2-yl)-8-methylimidazo[1,5-a]pyrazin-1-yl)-N-(4-methylpyridin-2-yl)benzamide] |
| ≥ 1000 | ≥ 1000 | ≥ 1000 | CCCc1ccnc(NC(=O)c2ccc(-c3nc([C@H](C)N(C)C(=O)/C=C/CN(C)C)n4ccnc(C)c34)cc2)c1 [Example 18, (S,E)-4-(3-(1-(4-(dimethylamino)-N-methylbut-2-enamido)ethyl)-8-methylimidazo[1,5-a]pyrazin-1-yl)-N-(4-propylpyridin-2-yl)benzamide] |
| ≥ 1000 | ≥ 1000 | ≥ 1000 | C=CC(=O)N1CCC[C@H]1c1nc(-c2ccc(C(=O)Nc3ccccn3)cc2)c2c(C)nccn12 [Example 19, (S)-4-(3-(1-acryloylpyrrolidin-2-yl)-8-methylimidazo[1,5-a]pyrazin-1-yl)-N-(pyridin-2-yl)benzamide] |
| ≥ 1000 | ≥ 1000 | ≥ 1000 | Cc1nccn2c([C@@H]3CCCCN3C(=O)/C=C/CN3CCCC3)nc(-c3ccc(C(=O)Nc4cc(C(F)(F)F)ccn4)cc3)c12 [Example 21, (S,E)-4-(8-methyl-3-(1-(4-(pyrrolidin-1-yl)but-2-enoyl)piperidin-2-yl)imidazo[1,5-a]pyrazin-1-yl)-N-(4-(trifluoromethyl)pyridin-2-yl)benzamide] |
| ≥ 1000 | ≥ 1000 | ≥ 1000 | CC#CC(=O)N1CCCC[C@H]1c1nc(-c2ccc(C(=O)Nc3cc(CCC)ccn3)cc2)c2c(C)nccn12 [Example 22, (S)-4-(3-(1-but-2-ynoylpiperidin-2-yl)-8-methylimidazo[1,5-a]pyrazin-1-yl)-N-(4-propylpyridin-2-yl)benzamide] |
| ≥ 1000 | ≥ 1000 | ≥ 1000 | C=CC(=O)N[C@@H](C)c1nc(-c2ccc(C(=O)Nc3cc(CCC)ccn3)cc2)c2c(C)nccn12 [Example 23, (S)-4-(3-(1-acrylamidoethyl)-8-methylimidazo[1,5-a]pyrazin-1-yl)-N-(4-propylpyridin-2-yl)benzamide] |

Source: US20140155406A1, “4-IMIDAZOPYRIDAZIN-1-YL-BENZAMIDES AND 4-IMIDAZOTRIAZIN-1-YL-BENZAMIDES BTK INHIBITORS” (priority 2011, published 2014)
